Test results reported in ChEMBL document CHEMBL1201861, “Genomics of Drug Sensitity in Cancer screening data, Wellcome Trust Sanger Institute”.
pIC50: −log10 of the molar value.

test system: OCUB-M; test: cells; format: functional, cell-based; conditions: Homo sapiens;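 further: growth inhibition of the cancer cell line, read out through a cell viability assay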
Description: SANGER: Inhibition of human OCUB-M cell growth in a cell viability assay.

Row | SMILES | pIC50
1 | CN(NC(=O)CC(=O)NN(C)C(=S)c1ccccc1)C(=S)c1ccccc1 [ELESCLOMOL] | 6.71

test system: HOP-62; test: cells; format: functional, cell-based, Homo sapiens; conditions: Homo sapiens, HOP-62;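 further: cell growth inhibition determined with a viability assay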
Description: SANGER: Inhibition of human HOP-62 cell growth in a cell viability assay.

Row | SMILES | pIC50
2 | CN(NC(=O)CC(=O)NN(C)C(=S)c1ccccc1)C(=S)c1ccccc1 [ELESCLOMOL] | 6.91

test system: NB5; test: cells; format: functional, cell-based, Homo sapiens; conditions: Homo sapiens, NB5;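 further: growth inhibition of NB5 cells, read out as cell viability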
Description: SANGER: Inhibition of human NB5 cell growth in a cell viability assay.

Row | SMILES | pIC50
3 | CN(NC(=O)CC(=O)NN(C)C(=S)c1ccccc1)C(=S)c1ccccc1 [ELESCLOMOL] | 7.51

test system: NCI-H1304; test: cells; format: functional, cell-based, Homo sapiens; conditions: Homo sapiens, NCI-H1304;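 further: growth inhibition of the cancer cell line, measured in a cell viability assay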
Description: SANGER: Inhibition of human NCI-H1304 cell growth in a cell viability assay.

Row | SMILES | pIC50
4 | CN(NC(=O)CC(=O)NN(C)C(=S)c1ccccc1)C(=S)c1ccccc1 [ELESCLOMOL] | < 6.70

test system: GOTO; test: cells; format: functional, cell-based, Homo sapiens; conditions: Homo sapiens, GOTO;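 further: growth inhibition of GOTO cells, read out by a cell viability assay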
Description: SANGER: Inhibition of human GOTO cell growth in a cell viability assay.

Row | SMILES | pIC50
5 | CN(NC(=O)CC(=O)NN(C)C(=S)c1ccccc1)C(=S)c1ccccc1 [ELESCLOMOL] | 7.73

test system: LB771-HNC; test: cells; format: functional, cell-based; conditions: Homo sapiens;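 further: growth inhibition of LB771-HNC human cells, read out with a cell viability assay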
Description: SANGER: Inhibition of human LB771-HNC cell growth in a cell viability assay.

Row | SMILES | pIC50
6 | CN(NC(=O)CC(=O)NN(C)C(=S)c1ccccc1)C(=S)c1ccccc1 [ELESCLOMOL] | < 6.70

test system: GT3TKB; test: cells; format: functional, cell-based, Homo sapiens; conditions: Homo sapiens, GT3TKB;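 further: growth inhibition of the cell line, read out with a cell viability assay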
Description: SANGER: Inhibition of human GT3TKB cell growth in a cell viability assay.

Row | SMILES | pIC50
7 | CN(NC(=O)CC(=O)NN(C)C(=S)c1ccccc1)C(=S)c1ccccc1 [ELESCLOMOL] | 7.80

test system: SH-4; test: cells; format: functional, cell-based; conditions: Homo sapiens;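 further: growth inhibition of SH-4 cells, read out with a cell viability assay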
Description: SANGER: Inhibition of human SH-4 cell growth in a cell viability assay.

Row | SMILES | pIC50
8 | CN(NC(=O)CC(=O)NN(C)C(=S)c1ccccc1)C(=S)c1ccccc1 [ELESCLOMOL] | < 6.70

test system: C2BBe1; test: cells; format: functional, cell-based, Homo sapiens; conditions: Homo sapiens, C2BBe1;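 further: growth inhibition of C2BBe1 cells, read out through a viability assay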
Description: SANGER: Inhibition of human C2BBe1 cell growth in a cell viability assay.

Row | SMILES | pIC50
9 | CN(NC(=O)CC(=O)NN(C)C(=S)c1ccccc1)C(=S)c1ccccc1 [ELESCLOMOL] | 6.99

test system: ALL-PO; test: cells; format: functional, cell-based, Homo sapiens; conditions: Homo sapiens, ALL-PO;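 further: growth inhibition of ALL-PO cells, read out by a cell viability assay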
Description: SANGER: Inhibition of human ALL-PO cell growth in a cell viability assay.

Row | SMILES | pIC50
10 | CN(NC(=O)CC(=O)NN(C)C(=S)c1ccccc1)C(=S)c1ccccc1 [ELESCLOMOL] | < 6.70

test system: MPP-89; test: cells; format: functional, cell-based, Homo sapiens; conditions: Homo sapiens, MPP-89;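 further: growth inhibition of human MPP-89 cells, read out with a cell viability assay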
Description: SANGER: Inhibition of human MPP-89 cell growth in a cell viability assay.

Row | SMILES | pIC50
11 | CN(NC(=O)CC(=O)NN(C)C(=S)c1ccccc1)C(=S)c1ccccc1 [ELESCLOMOL] | 8.04

test system: COLO-684; test: cells; format: functional, cell-based, Homo sapiens; conditions: Homo sapiens, COLO-684
Description: SANGER: Inhibition of human COLO-684 cell growth in a cell viability assay.

Row | SMILES | pIC50
12 | CN(NC(=O)CC(=O)NN(C)C(=S)c1ccccc1)C(=S)c1ccccc1 [ELESCLOMOL] | 8.04

test system: LAN-6; test: cells; format: functional, cell-based, Homo sapiens; conditions: Homo sapiens, LAN-6;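 further: growth inhibition of LAN-6 cells, determined with a cell viability assay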
Description: SANGER: Inhibition of human LAN-6 cell growth in a cell viability assay.

Row | SMILES | pIC50
13 | CN(NC(=O)CC(=O)NN(C)C(=S)c1ccccc1)C(=S)c1ccccc1 [ELESCLOMOL] | 7.26

test system: GB-1; test: cells; format: functional, cell-based, Homo sapiens; conditions: Homo sapiens, GB-1;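 further: growth of GB-1 cells judged by a viability assay, IC50 marks the concentration inhibiting growth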
Description: SANGER: Inhibition of human GB-1 cell growth in a cell viability assay.

Row | SMILES | pIC50
14 | CN(NC(=O)CC(=O)NN(C)C(=S)c1ccccc1)C(=S)c1ccccc1 [ELESCLOMOL] | 8.17

test system: Lu-65; test: cells; format: functional, cell-based, Homo sapiens; conditions: Homo sapiens, Lu-65;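 further: growth inhibition of Lu-65 cancer cells, read out by a cell viability assay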
Description: SANGER: Inhibition of human LU-65 cell growth in a cell viability assay.

Row | SMILES | pIC50
15 | CN(NC(=O)CC(=O)NN(C)C(=S)c1ccccc1)C(=S)c1ccccc1 [ELESCLOMOL] | < 6.70

test system: KS-1; test: cells; format: functional, cell-based; conditions: Homo sapiens;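 further: growth inhibition of KS-1 cells, read out with a cell viability assay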
Description: SANGER: Inhibition of human KS-1 cell growth in a cell viability assay.

Row | SMILES | pIC50
16 | CN(NC(=O)CC(=O)NN(C)C(=S)c1ccccc1)C(=S)c1ccccc1 [ELESCLOMOL] | 7.86

test system: KGN; test: cells; format: functional, cell-based, Homo sapiens; conditions: Homo sapiens, KGN;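 further: growth inhibition of KGN cells, read out with a cell viability assay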
Description: SANGER: Inhibition of human KGN cell growth in a cell viability assay.

Row | SMILES | pIC50
17 | CN(NC(=O)CC(=O)NN(C)C(=S)c1ccccc1)C(=S)c1ccccc1 [ELESCLOMOL] | < 6.70

test system: KE-37; test: cells; format: functional, cell-based, Homo sapiens; conditions: Homo sapiens, KE-37;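 further: growth inhibition of KE-37 cells, read out with a cell viability assay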
Description: SANGER: Inhibition of human KE-37 cell growth in a cell viability assay.

Row | SMILES | pIC50
18 | CN(NC(=O)CC(=O)NN(C)C(=S)c1ccccc1)C(=S)c1ccccc1 [ELESCLOMOL] | < 6.70

test system: MZ2-MEL; test: cells; format: functional, cell-based, Homo sapiens; conditions: Homo sapiens, MZ2-MEL;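 further: growth inhibition of MZ2-MEL cells read out with a cell viability assay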
Description: SANGER: Inhibition of human MZ2-MEL cell growth in a cell viability assay.

Row | SMILES | pIC50
19 | CN(NC(=O)CC(=O)NN(C)C(=S)c1ccccc1)C(=S)c1ccccc1 [ELESCLOMOL] | < 6.70

test system: DJM-1; test: cells; format: functional, cell-based, Homo sapiens; conditions: Homo sapiens, DJM-1;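 further: growth inhibition of human DJM-1 cells, read out by a cell viability assay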
Description: SANGER: Inhibition of human DJM-1 cell growth in a cell viability assay.

Row | SMILES | pIC50
20 | CN(NC(=O)CC(=O)NN(C)C(=S)c1ccccc1)C(=S)c1ccccc1 [ELESCLOMOL] | 7.27

test system: OVCAR-4; test: cells; format: functional, cell-based, Homo sapiens; conditions: Homo sapiens, OVCAR-4;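 further: growth inhibition of human OVCAR-4 cells, measured with a cell viability assay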
Description: SANGER: Inhibition of human OVCAR-4 cell growth in a cell viability assay.

Row | SMILES | pIC50
21 | CN(NC(=O)CC(=O)NN(C)C(=S)c1ccccc1)C(=S)c1ccccc1 [ELESCLOMOL] | 8.23

test system: MC116; test: cells; format: functional, cell-based, Homo sapiens; conditions: Homo sapiens, MC116;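 further: growth inhibition of MC116 cells, read out with a cell viability assay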
Description: SANGER: Inhibition of human MC116 cell growth in a cell viability assay.

Row | SMILES | pIC50
22 | CN(NC(=O)CC(=O)NN(C)C(=S)c1ccccc1)C(=S)c1ccccc1 [ELESCLOMOL] | < 6.70

test system: HL-60; test: cells; format: functional, cell-based, Homo sapiens; conditions: Homo sapiens, HL-60;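 further: growth inhibition of human HL-60 cells, read out with a cell viability assay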
Description: SANGER: Inhibition of human HL-60 cell growth in a cell viability assay.

Row | SMILES | pIC50
23 | CN(NC(=O)CC(=O)NN(C)C(=S)c1ccccc1)C(=S)c1ccccc1 [ELESCLOMOL] | 7.18

test system: NCI-H2126; test: cells; format: functional, cell-based, Homo sapiens; conditions: Homo sapiens, NCI-H2126;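 further: growth inhibition of the cancer cell line, determined with a cell viability readout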
Description: SANGER: Inhibition of human NCI-H2126 cell growth in a cell viability assay.

Row | SMILES | pIC50
24 | CN(NC(=O)CC(=O)NN(C)C(=S)c1ccccc1)C(=S)c1ccccc1 [ELESCLOMOL] | 7.79

test system: KARPAS-45; test: cells; format: functional, cell-based, Homo sapiens; conditions: Homo sapiens, KARPAS-45;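 further: inhibition of cell line growth, read out through a viability assay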
Description: SANGER: Inhibition of human KARPAS-45 cell growth in a cell viability assay.

Row | SMILES | pIC50
25 | CN(NC(=O)CC(=O)NN(C)C(=S)c1ccccc1)C(=S)c1ccccc1 [ELESCLOMOL] | < 6.70

test system: NKM-1; test: cells; format: functional, cell-based, Homo sapiens; conditions: Homo sapiens, NKM-1;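 further: growth inhibition of NKM-1 cells, read out with a cell viability assay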
Description: SANGER: Inhibition of human NKM-1 cell growth in a cell viability assay.

Row | SMILES | pIC50
26 | CN(NC(=O)CC(=O)NN(C)C(=S)c1ccccc1)C(=S)c1ccccc1 [ELESCLOMOL] | < 6.70

test system: SNU-C2B; test: cells; format: functional, cell-based; conditions: Homo sapiens;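 further: cell viability readout used to measure compound-driven suppression of SNU-C2B cell proliferation, IC50 marking half-maximal growth inhibition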
Description: SANGER: Inhibition of human SNU-C2B cell growth in a cell viability assay.

Row | SMILES | pIC50
27 | CN(NC(=O)CC(=O)NN(C)C(=S)c1ccccc1)C(=S)c1ccccc1 [ELESCLOMOL] | < 6.70

test system: NCI-H1395; test: cells; format: functional, cell-based, Homo sapiens; conditions: Homo sapiens, NCI-H1395;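 further: cell viability assay read-out quantifying reduced proliferation of human NCI-H1395 cells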
Description: SANGER: Inhibition of human NCI-H1395 cell growth in a cell viability assay.

Row | SMILES | pIC50
28 | CN(NC(=O)CC(=O)NN(C)C(=S)c1ccccc1)C(=S)c1ccccc1 [ELESCLOMOL] | 7.87

test system: VA-ES-BJ; test: cells; format: functional, cell-based, Homo sapiens; conditions: Homo sapiens, VA-ES-BJ;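 further: growth inhibition of the VA-ES-BJ cell line, read out by a cell viability assay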
Description: SANGER: Inhibition of human VA-ES-BJ cell growth in a cell viability assay.

Row | SMILES | pIC50
29 | CN(NC(=O)CC(=O)NN(C)C(=S)c1ccccc1)C(=S)c1ccccc1 [ELESCLOMOL] | 8.12

test system: TE-10; test: cells; format: functional, cell-based, Homo sapiens; conditions: Homo sapiens, TE-10;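 further: growth inhibition of TE-10 cells, measured by a cell viability assay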
Description: SANGER: Inhibition of human TE-10 cell growth in a cell viability assay.

Row | SMILES | pIC50
30 | CN(NC(=O)CC(=O)NN(C)C(=S)c1ccccc1)C(=S)c1ccccc1 [ELESCLOMOL] | < 6.70

test system: MMAC-SF; test: cells; format: functional, cell-based; conditions: Homo sapiens;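 further: growth inhibition of human MMAC-SF cells, read out with a cell viability assay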
Description: SANGER: Inhibition of human MMAC-SF cell growth in a cell viability assay.

Row | SMILES | pIC50
31 | CN(NC(=O)CC(=O)NN(C)C(=S)c1ccccc1)C(=S)c1ccccc1 [ELESCLOMOL] | 7.07

test system: DMS-114; test: cells; format: functional, cell-based, Homo sapiens; conditions: Homo sapiens, DMS-114

Row | SMILES | pIC50
32 | CN(NC(=O)CC(=O)NN(C)C(=S)c1ccccc1)C(=S)c1ccccc1 [ELESCLOMOL] | 8.03

test system: RCC10RGB; test: cells; format: functional, cell-based, Homo sapiens; conditions: Homo sapiens, RCC10RGB;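 further: growth inhibition of human RCC10RGB cells, read out by a cell viability assay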
Description: SANGER: Inhibition of human RCC10RGB cell growth in a cell viability assay.

Row | SMILES | pIC50
33 | CN(NC(=O)CC(=O)NN(C)C(=S)c1ccccc1)C(=S)c1ccccc1 [ELESCLOMOL] | < 6.70

test system: NCI-H747; test: cells; format: functional, cell-based, Homo sapiens; conditions: Homo sapiens, NCI-H747;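 further: growth inhibition of human NCI-H747 cells, read out by a cell viability assay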
Description: SANGER: Inhibition of human NCI-H747 cell growth in a cell viability assay.

Row | SMILES | pIC50
34 | CN(NC(=O)CC(=O)NN(C)C(=S)c1ccccc1)C(=S)c1ccccc1 [ELESCLOMOL] | 7.24

test system: MOLT-16; test: cells; format: functional, cell-based, Homo sapiens; conditions: Homo sapiens, MOLT-16;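 further: growth inhibition of human MOLT-16 cells, read out with a cell viability assay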
Description: SANGER: Inhibition of human MOLT-16 cell growth in a cell viability assay.

Row | SMILES | pIC50
35 | CN(NC(=O)CC(=O)NN(C)C(=S)c1ccccc1)C(=S)c1ccccc1 [ELESCLOMOL] | 8.34

test system: BE-13; test: cells; format: functional, cell-based, Homo sapiens; conditions: Homo sapiens, BE-13;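 further: growth inhibition of human BE-13 cells, measured with a cell viability assay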
Description: SANGER: Inhibition of human BE-13 cell growth in a cell viability assay.

Row | SMILES | pIC50
36 | CN(NC(=O)CC(=O)NN(C)C(=S)c1ccccc1)C(=S)c1ccccc1 [ELESCLOMOL] | < 6.70

test system: BB49-HNC; test: cells; format: functional, cell-based, Homo sapiens; conditions: Homo sapiens, BB49-HNC;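 further: cell viability assay read-out, reported as inhibition of BB49-HNC cell growth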
Description: SANGER: Inhibition of human BB49-HNC cell growth in a cell viability assay.

Row | SMILES | pIC50
37 | CN(NC(=O)CC(=O)NN(C)C(=S)c1ccccc1)C(=S)c1ccccc1 [ELESCLOMOL] | 6.90

test system: NB6; test: cells; format: functional, cell-based, Homo sapiens; conditions: Homo sapiens, NB6;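 further: growth inhibition of NB6 cells, read out by a cell viability assay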
Description: SANGER: Inhibition of human NB6 cell growth in a cell viability assay.

Row | SMILES | pIC50
38 | CN(NC(=O)CC(=O)NN(C)C(=S)c1ccccc1)C(=S)c1ccccc1 [ELESCLOMOL] | 6.85

test system: RXF 393; test: cells; format: functional, cell-based, Homo sapiens; conditions: Homo sapiens, RXF 393;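 further: growth inhibition of human RXF 393 cells, read out with a cell viability assay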
Description: SANGER: Inhibition of human RXF393 cell growth in a cell viability assay.

Row | SMILES | pIC50
39 | CN(NC(=O)CC(=O)NN(C)C(=S)c1ccccc1)C(=S)c1ccccc1 [ELESCLOMOL] | 7.87

test system: GR-ST; test: cells; format: functional, cell-based, Homo sapiens; conditions: Homo sapiens, GR-ST
Description: SANGER: Inhibition of human GR-ST cell growth in a cell viability assay.

Row | SMILES | pIC50
40 | CN(NC(=O)CC(=O)NN(C)C(=S)c1ccccc1)C(=S)c1ccccc1 [ELESCLOMOL] | < 6.70

test system: SF-126; test: cells; format: functional, cell-based, Homo sapiens; conditions: Homo sapiens, SF-126;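 further: growth inhibition of human SF126 cells, read out with a cell viability assay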
Description: SANGER: Inhibition of human SF126 cell growth in a cell viability assay.

Row | SMILES | pIC50
41 | CN(NC(=O)CC(=O)NN(C)C(=S)c1ccccc1)C(=S)c1ccccc1 [ELESCLOMOL] | 8.71

test system: GI-1; test: cells; format: functional, cell-based, Homo sapiens; conditions: Homo sapiens, GI-1;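 further: growth inhibition of human GI-1 cells, measured with a cell viability readout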
Description: SANGER: Inhibition of human GI-1 cell growth in a cell viability assay.

Row | SMILES | pIC50
42 | CN(NC(=O)CC(=O)NN(C)C(=S)c1ccccc1)C(=S)c1ccccc1 [ELESCLOMOL] | 8.08

test system: TGBC24TKB; test: cells; format: functional, cell-based; conditions: Homo sapiens;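 further: growth inhibition of human TGBC24TKB cells, read out with a cell viability assay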
Description: SANGER: Inhibition of human TGBC24TKB cell growth in a cell viability assay.

Row | SMILES | pIC50
43 | CN(NC(=O)CC(=O)NN(C)C(=S)c1ccccc1)C(=S)c1ccccc1 [ELESCLOMOL] | 7.89

test system: EW-16; test: cells; format: functional, cell-based, Homo sapiens; conditions: Homo sapiens, EW-16;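 further: growth inhibition of human EW-16 cells, read out as cell viability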
Description: SANGER: Inhibition of human EW-16 cell growth in a cell viability assay.

Row | SMILES | pIC50
44 | CN(NC(=O)CC(=O)NN(C)C(=S)c1ccccc1)C(=S)c1ccccc1 [ELESCLOMOL] | 8.79

test system: LS-1034; test: cells; format: functional, cell-based, Homo sapiens; conditions: Homo sapiens, LS-1034
Description: SANGER: Inhibition of human LS-1034 cell growth in a cell viability assay.

Row | SMILES | pIC50
45 | CN(NC(=O)CC(=O)NN(C)C(=S)c1ccccc1)C(=S)c1ccccc1 [ELESCLOMOL] | < 6.70

test system: SK-MEL-1; test: cells; format: functional, cell-based, Homo sapiens; conditions: Homo sapiens, SK-MEL-1;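 further: growth inhibition of human SK-MEL-1 cells, read out by a cell viability assay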
Description: SANGER: Inhibition of human SK-MEL-1 cell growth in a cell viability assay.

Row | SMILES | pIC50
46 | CN(NC(=O)CC(=O)NN(C)C(=S)c1ccccc1)C(=S)c1ccccc1 [ELESCLOMOL] | < 6.70

test system: no-11; test: cells; format: functional, cell-based, Homo sapiens; conditions: Homo sapiens;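 further: growth inhibition of human NO-11 cells, read out with a cell viability assay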
Description: SANGER: Inhibition of human no-11 cell growth in a cell viability assay.

Row | SMILES | pIC50
47 | CN(NC(=O)CC(=O)NN(C)C(=S)c1ccccc1)C(=S)c1ccccc1 [ELESCLOMOL] | 7.63

test system: KLE; test: cells; format: functional, cell-based; conditions: Homo sapiens;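 further: growth inhibition of human KLE cells, read out with a cell viability assay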
Description: SANGER: Inhibition of human KLE cell growth in a cell viability assay.

Row | SMILES | pIC50
48 | CN(NC(=O)CC(=O)NN(C)C(=S)c1ccccc1)C(=S)c1ccccc1 [ELESCLOMOL] | < 6.70

test system: GI-ME-N; test: cells; format: functional, cell-based, Homo sapiens; conditions: Homo sapiens, GI-ME-N;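 further: growth inhibition of human GI-ME-N cells, read out with a cell viability assay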
Description: SANGER: Inhibition of human GI-ME-N cell growth in a cell viability assay.

Row | SMILES | pIC50
49 | CN(NC(=O)CC(=O)NN(C)C(=S)c1ccccc1)C(=S)c1ccccc1 [ELESCLOMOL] | < 6.70

test system: COR-L88; test: cells; format: functional, cell-based, Homo sapiens; conditions: Homo sapiens, COR-L88;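 further: growth inhibition of COR-L88 cells, read out with a cell viability assay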
Description: SANGER: Inhibition of human COR-L88 cell growth in a cell viability assay.

Row | SMILES | pIC50
50 | CN(NC(=O)CC(=O)NN(C)C(=S)c1ccccc1)C(=S)c1ccccc1 [ELESCLOMOL] | < 6.70

test system: EW-11; test: cells; format: functional, cell-based, Homo sapiens; conditions: Homo sapiens, EW-11;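 further: growth inhibition of human EW-11 cells, measured with a cell viability assay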
Description: SANGER: Inhibition of human EW-11 cell growth in a cell viability assay.

Row | SMILES | pIC50
51 | CN(NC(=O)CC(=O)NN(C)C(=S)c1ccccc1)C(=S)c1ccccc1 [ELESCLOMOL] | 8.31
